Source: article PMC6269498, “Increased activity of MdFRK2, a high-affinity fructokinase, leads to upregulation of sorbitol metabolism and downregulation of sucrose metabolism in apple leaves” (Horticulture Research, 2018)

Tested on: MdFRK1
Assay: coupled spectrophotometric assay (phosphoglucoisomerase / G6P dehydrogenase), […] nm
Assay type: biochemical, Malus domestica
Settings: 50 mM Tris-HCl pH 8.0, 4 mM MgCl2, 2.5 mM ATP; substrate inhibition above 2 mM fructose

Km: 620 µM
SMILES: OCC1(O)OC[C@@H](O)[C@@H](O)[C@@H]1O (stereo partly shown) [fructose]
